The NIST ThermoML archive (doi:10.1021/acs.jced.7b00520)
± gives the expanded uncertainty stated by the source.

Experiment: mn = molality of the nth substance listed, in mol/kg
Conditions: 101.3 kPa, Liquid; for viscosity: Capillary tube (Ostwald / Ubbelohde) method; for mass density: Vibrating tube method

Cn1c(=O)c2[nH]cnc2n(C)c1=O [3,7-dihydro-1,3-dimethyl-1H-purine-2,6-dione] + O
viscosity (288.15 K, m1 = 0.00213): 1.139 ± 0.025 mPa·s | viscosity (288.15 K, m1 = 0.00284): 1.139 ± 0.025 mPa·s | viscosity (288.15 K, m1 = 0.00394): 1.14 ± 0.025 mPa·s | viscosity (288.15 K, m1 = 0.00519): 1.14 ± 0.025 mPa·s | viscosity (288.15 K, m1 = 0.00617): 1.141 ± 0.025 mPa·s | viscosity (288.15 K, m1 = 0.00689): 1.141 ± 0.025 mPa·s | viscosity (288.15 K, m1 = 0.00819): 1.142 ± 0.025 mPa·s | viscosity (288.15 K, m1 = 0.00921): 1.142 ± 0.025 mPa·s | mass density (288.15 K, m1 = 0.00208): 999.241 ± 8 kg/m3 | mass density (288.15 K, m1 = 0.00285): 999.283 ± 8 kg/m3 | mass density (288.15 K, m1 = 0.00378): 999.333 ± 8 kg/m3 | mass density (288.15 K, m1 = 0.00479): 999.388 ± 8 kg/m3 | mass density (288.15 K, m1 = 0.00578): 999.443 ± 8 kg/m3 | mass density (288.15 K, m1 = 0.00699): 999.509 ± 8 kg/m3 | mass density (288.15 K, m1 = 0.00776): 999.551 ± 8 kg/m3 | mass density (288.15 K, m1 = 0.00934): 999.638 ± 8 kg/m3 | mass density (288.15 K, m1 = 0.00986): 999.667 ± 8 kg/m3 | viscosity (298.15 K, m1 = 0.00213): 0.891 ± 0.025 mPa·s | viscosity (298.15 K, m1 = 0.00284): 0.892 ± 0.025 mPa·s | viscosity (298.15 K, m1 = 0.00394): 0.892 ± 0.025 mPa·s | viscosity (298.15 K, m1 = 0.00519): 0.892 ± 0.025 mPa·s | viscosity (298.15 K, m1 = 0.00617): 0.893 ± 0.025 mPa·s | viscosity (298.15 K, m1 = 0.00689): 0.893 ± 0.025 mPa·s | viscosity (298.15 K, m1 = 0.00819): 0.894 ± 0.025 mPa·s | viscosity (298.15 K, m1 = 0.00921): 0.895 ± 0.025 mPa·s | mass density (298.15 K, m1 = 0.00208): 997.153 ± 8 kg/m3 | mass density (298.15 K, m1 = 0.00285): 997.192 ± 8 kg/m3 | mass density (298.15 K, m1 = 0.00378): 997.239 ± 8 kg/m3 | mass density (298.15 K, m1 = 0.00479): 997.291 ± 8 kg/m3 | mass density (298.15 K, m1 = 0.00578): 997.341 ± 8 kg/m3 | mass density (298.15 K, m1 = 0.00699): 997.404 ± 8 kg/m3 | mass density (298.15 K, m1 = 0.00776): 997.443 ± 8 kg/m3 | mass density (298.15 K, m1 = 0.00934): 997.526 ± 8 kg/m3 | mass density (298.15 K, m1 = 0.00986): 997.554 ± 8 kg/m3 | viscosity (308.15 K, m1 = 0.00213): 0.719 ± 0.024 mPa·s | viscosity (308.15 K, m1 = 0.00284): 0.72 ± 0.024 mPa·s | viscosity (308.15 K, m1 = 0.00394): 0.72 ± 0.024 mPa·s | viscosity (308.15 K, m1 = 0.00519): 0.721 ± 0.024 mPa·s | viscosity (308.15 K, m1 = 0.00617): 0.722 ± 0.024 mPa·s | viscosity (308.15 K, m1 = 0.00689): 0.722 ± 0.024 mPa·s | viscosity (308.15 K, m1 = 0.00819): 0.723 ± 0.024 mPa·s | viscosity (308.15 K, m1 = 0.00921): 0.723 ± 0.024 mPa·s | mass density (308.15 K, m1 = 0.00208): 994.165 ± 8 kg/m3 | mass density (308.15 K, m1 = 0.00285): 994.204 ± 8 kg/m3 | mass density (308.15 K, m1 = 0.00378): 994.25 ± 8 kg/m3 | mass density (308.15 K, m1 = 0.00479): 994.3 ± 8 kg/m3 | mass density (308.15 K, m1 = 0.00578): 994.35 ± 8 kg/m3 | mass density (308.15 K, m1 = 0.00699): 994.41 ± 8 kg/m3 | mass density (308.15 K, m1 = 0.00776): 994.448 ± 8 kg/m3 | mass density (308.15 K, m1 = 0.00934): 994.528 ± 8 kg/m3 | mass density (308.15 K, m1 = 0.00986): 994.554 ± 8 kg/m3 | viscosity (318.15 K, m1 = 0.00213): 0.597 ± 0.024 mPa·s | viscosity (318.15 K, m1 = 0.00284): 0.597 ± 0.024 mPa·s | viscosity (318.15 K, m1 = 0.00394): 0.598 ± 0.024 mPa·s | viscosity (318.15 K, m1 = 0.00519): 0.598 ± 0.024 mPa·s | viscosity (318.15 K, m1 = 0.00617): 0.599 ± 0.024 mPa·s | viscosity (318.15 K, m1 = 0.00689): 0.599 ± 0.024 mPa·s | viscosity (318.15 K, m1 = 0.00819): 0.599 ± 0.024 mPa·s | viscosity (318.15 K, m1 = 0.00921): 0.6 ± 0.024 mPa·s | mass density (318.15 K, m1 = 0.00208): 990.343 ± 8 kg/m3 | mass density (318.15 K, m1 = 0.00285): 990.379 ± 8 kg/m3 | mass density (318.15 K, m1 = 0.00378): 990.423 ± 8 kg/m3 | mass density (318.15 K, m1 = 0.00479): 990.472 ± 8 kg/m3 | mass density (318.15 K, m1 = 0.00578): 990.519 ± 8 kg/m3 | mass density (318.15 K, m1 = 0.00699): 990.578 ± 8 kg/m3 | mass density (318.15 K, m1 = 0.00776): 990.614 ± 8 kg/m3 | mass density (318.15 K, m1 = 0.00934): 990.691 ± 8 kg/m3 | mass density (318.15 K, m1 = 0.00986): 990.716 ± 8 kg/m3
